Data from patent publication US9359592B2, “Method for differentiation into retinal cells from stem cells” (SNU R&DB Foundation, priority 2009, dated 2016).

What was measured:
[1] = tested on: retinal progenitor cells differentiated from hESCs (differentiation into photoreceptor cells); test: Immunochemical staining: positive rates of retinal cell markers after differentiation with substitutes for Wnt3a and Shh; format: cell-based, human; settings: mean, sample size = 3
Protocol: The eye field precursors (floating aggregates) were cultured in 8-well poly-D-lysine/laminin-coated slides (BD Biosciences, Bedford, Mass.) under the same conditions that were used for differentiation into the retinal progenitor cells, the neural retinal progenitor cells, the photoreceptor cell precursors and the photoreceptor cells.
After being blocked for 90 min, the slides in each differentiation step were incubated overnight at 4° C. with the following antibodies specific for cells of each differentiation step: rabbit-Blue-opsin (1:500, Chemicon), sheep-Chx10 (1:100, Chemicon), rabbit-Crx (1:200, Santa Cruz Biotechnology, Santa Cruz, Calif., USA), rabbit-GFAP (1:200, Invitrogen), mouse-human specific mitochondria (1:50, Chemicon), rabbit-human specific mitochondria (1:200, Chemicon), mouse-Islet1 (1:10, Developmental Studies Hydroma Bank, DSHB; Iowa City, Iowa, USA), mouse-Ki67 (1:100, Vector Laboratories, Peterborough, England), mouse-Mitf (1:1,000, abcam, Cambridge, Mass., USA), mouse-nestin (1:250, BD Sciences), rabbit-neurofilament-200 (1:1,000, Sigma-Aldrich), rabbit-Otx2 (1:100, abcam), rabbit-Pax2 (1:250, abcam), mouse-Pax6 (1:2, DSHB), mouse-peripherin2 (1:500, GenScript, Piscataway, N.J., USA), rabbit-Rax (1:250, abcam), rabbit-recoverin (1:1,000, Chemicon), retinal pigment epithelium 65 (RPE65, 1:100, Chemicon), rabbit-rhodopsin (1:500, Sigma-Aldrich), mouse-rhodopsin (1:500, Ret-P1, Lab Vision, Fremont, Calif., USA), mouse-rhodopsin (1:2,000, Ret-P1, Sigma-Aldrich), mouse-rom1 (1:50, ABR-Affinity Bioreagents, Golden, Colo., USA), rabbit-PDE6 beta (1:100, abcam), rabbit-phosducin (1:500, Santa Cruz Biotechnology), mouse-PKC-alpha (1:500, Sigma-Aldrich), mouse-Prox1 (1:2,000, Chemicon), mouse-Sox2 (1:250, R&D Systems), rabbit-synaptophysin (1:2,000, Santa Cruz Biotechnology), and rabbit-ZO-1 (1:100, Zymed-Invitrogen).
The cells cultured on the slides in each step were washed three times for 5 min with PBS and incubated at room temperature for 2 hrs with species-specific secondary antibody conjugated with Cy3 (1:800, Jackson Immunoresearch Laboratory) or Alexa488 (1:500, Invitrogen). A standard material suitable for the primary and the secondary antibody was used to examine non-specific staining or interaction between the antibodies. Afterwards, the cells were washed three times for 5 min with PBS, counterstained with DAPI (4′,6-diamidino-2 phenylindole) and mounted in Vectashield (Vector Laboratories), followed by visualization under an epifluorescence microscope (Nikon Eclipse, E800, Tokyo, Japan) and a confocal microscope (Leica, Leica Microsystems Inc, Bannockburn, Ill., USA or Zeiss LSM510, Carl Zeiss, Inc, Thornwood, N.Y., USA).
500 cells were counted from 20 microscopic fields randomly selected at 200 magnification and evaluated for positive responses to each antibody. Positive responses to antibodies were determined after at least three evaluations. […] All data were represented as mean standard error of the mean (S.E.M) with a statistical significance of p<0.05.

[2] = tested on: hESC-derived retinal progenitor cells / neural retinal progenitor cells; test: Immunochemical staining: marker positive rates during stepwise differentiation (Examples 4 to 6); format: cell-based, human; settings: 50 ng/ml Wnt3a for 5 days (day 18); 12.8% before addition
Protocol: The retinal progenitor cells generated in Example 3 were cultured in a medium for inducing differentiation into neural retinal progenitor cells [DMEM/F12 (Invitrogen), 1 mM L-glutamine (Invitrogen), 0.1 mM nonessential amino acids (Invitrogen), 0.1 mM mercaptoethanol (Sigma-Aldrich), 1% B27 supplement (Invitrogen), 1% N2 supplement (Invitrogen), 10 ng/ml noggin, 10 ng/ml IGF-1, 5 ng/ml FGF2, 50 ng/ml recombinant Wnt3a (R&D Systems)] supplied thereto for 5 days, thus giving neural retinal progenitor cells (FIG. 1).
The neural retinal progenitor cells generated in Example 4 were induced to differentiate into photoreceptor cell precursors by supplying a medium [DMEM/F12 (Invitrogen), 1 mM L-glutamine (Invitrogen), 0.1 mM nonessential amino acids (Invitrogen), 0.1 mM mercaptoethanol (Sigma-Aldrich), 1% B27 supplement (Invitrogen), 1% N2 supplement (Invitrogen), 10 ng/ml IGF-1, 50 ng/ml Wnt3a, and 250 ng/ml recombinant Shh (Sonic Hedgehog amino terminal peptide, Shh, R&D Systems)] for 3 days. Noggin and FGF2, both used in the previous step, were excluded from the medium (FIG. 1).
The differentiation of the cells obtained in Examples 3 to 6 was examined using an immunochemical staining method as follows. […]

Molecule: [Cl-].[Li+] [LiCl]
- Positive rate of recoverin ([1]; Wnt3a substitute at 2.5 mM): 64.1%
- Positive rate of rhodopsin ([1]; Wnt3a substitute at 2.5 mM): 56.2%
- Positive rate of Crx ([1]; Wnt3a substitute at 5 mM): 5.0%
- Positive rate of Ki67 ([1]; Wnt3a substitute at 5 mM): 33.3%
- Positive rate of peripherin2 ([1]; Wnt3a substitute at 5 mM): 1.5%
- Positive rate of recoverin ([1]; Wnt3a substitute at 5 mM): 78.9%
- Positive rate of rhodopsin ([1]; Wnt3a substitute at 5 mM): 68.5%

Molecule: Norrin: recombinant Norrin (R&D Systems), activator of the Wnt pathway that binds to Frizzled4 receptor
- Positive rate of Crx ([1]; Wnt3a substitute at 50 ng/ml): 39.3%
- Positive rate of Ki67 ([1]; Wnt3a substitute at 50 ng/ml): 42.2%
- Positive rate of Rom ([1]; Wnt3a substitute at 50 ng/ml): 69.5%
- Positive rate of b-opsin ([1]; Wnt3a substitute at 50 ng/ml): 71.1%
- Positive rate of peripherin2 ([1]; Wnt3a substitute at 50 ng/ml): 24.9%
- Positive rate of recoverin ([1]; Wnt3a substitute at 50 ng/ml): 85.0%
- Positive rate of rhodopsin ([1]; Wnt3a substitute at 50 ng/ml): 82.9%

Molecule: O=C1NC(=O)C(c2ccccc2[N+](=O)[O-])=C1Nc1ccc(O)c(Cl)c1 [SB415286]
- Positive rate of Crx ([1]; Wnt3a substitute at 30 uM): 53.7%
- Positive rate of Ki67 ([1]; Wnt3a substitute at 30 uM): 13.3%
- Positive rate of Pax6 ([1]; Wnt3a substitute at 30 uM): 89.1%
- Positive rate of Rom ([1]; Wnt3a substitute at 30 uM): 59.5%
- Positive rate of b-opsin ([1]; Wnt3a substitute at 30 uM): 53.7%
- Positive rate of peripherin2 ([1]; Wnt3a substitute at 30 uM): 9.1%
- Positive rate of recoverin ([1]; Wnt3a substitute at 30 uM): 70.0%
- Positive rate of rhodopsin ([1]; Wnt3a substitute at 30 uM): 69.3%

Molecule: O=C1Nc2cc(Br)ccc2/C1=C1/Nc2ccccc2/C1=N\O [BIO, 6-bromoindirubin-3′ oxime]
- Positive rate of Crx ([1]; Wnt3a substitute at 2 uM): 65.8%
- Positive rate of Ki67 ([1]; Wnt3a substitute at 2 uM): 17.2%
- Positive rate of Pax6 ([1]; Wnt3a substitute at 2 uM): 92.8%
- Positive rate of Rom ([1]; Wnt3a substitute at 2 uM): 60.3%
- Positive rate of b-opsin ([1]; Wnt3a substitute at 2 uM): 77.5%
- Positive rate of peripherin2 ([1]; Wnt3a substitute at 2 uM): 33.9%
- Positive rate of recoverin ([1]; Wnt3a substitute at 2 uM): 77.1%
- Positive rate of rhodopsin ([1]; Wnt3a substitute at 2 uM): 71.5%

B1: Wnt3a: recombinant Wnt3a (R&D Systems), Wnt signaling pathway activator (protein, UniProt P56704 19-352, looked up)
Protein Wnt-3a: SYPIWWSLAVGPQYSSLGSQPILCASIPGLVPKQLRFCRNYVEIMPSVAEGIKIGIQECQHQFRGRRWNCTTVHDSLAIFGPVLDKATRESAFVHAIASAGVAFAVTRSCAEGTAAICGCSSRHQGSPGKGWKWGGCSEDIEFGGMVSREFADARENRPDARSAMNRHNNEAGRQAIASHMHLKCKCHGLSGSCEVKTCWWSQPDFRAIGDFLKDKYDSASEMVVEKHRESRGWVETLRPRYTYFKVPTERDLVYYEASPNFCEPNPETGSFGTRDRTCNVSSHGIDGCDLLCCGRGHNARAERRREKCRCVFHWCCYVSCQECTRVYDVHTCK
- Positive rate of the photoreceptor cell precursor marker Crx after Wnt3a addition [2]: 80.1%

B2: Wntl: recombinant Wnt1 (PeproTech), Wnt signaling pathway activator used instead of Wnt3a (protein, UniProt P04628 28-370, looked up)
Proto-oncogene Wnt-1: ANSSGRWWGIVNVASSTNLLTDSKSLQLVLEPSLQLLSRKQRRLIRQNPGILHSVSGGLQSAVRECKWQFRNRRWNCPTAPGPHLFGKIVNRGCRETAFIFAITSAGVTHSVARSCSEGSIESCTCDYRRRGPGGPDWHWGGCSDNIDFGRLFGREFVDSGEKGRDLRFLMNLHNNEAGRTTVFSEMRQECKCHGMSGSCTVRTCWMRLPTLRAVGDVLRDRFDGASRVLYGNRGSNRASRAELLRLEPEDPAHKPPSPHDLVYFEKSPNFCTYSGRLGTAGTAGRACNSSSPALDGCELLCCGRGHRTRTQRVTERCNCTFHWCCHVSCRNCTHTRVLHECL
- Positive rate of Crx ([1]; Wnt3a substitute at 50 ng/ml): 60.3%
- Positive rate of Ki67 ([1]; Wnt3a substitute at 50 ng/ml): 23.8%
- Positive rate of Rom ([1]; Wnt3a substitute at 50 ng/ml): 55.9%
- Positive rate of b-opsin ([1]; Wnt3a substitute at 50 ng/ml): 61.6%
- Positive rate of peripherin2 ([1]; Wnt3a substitute at 50 ng/ml): 3.8%
- Positive rate of recoverin ([1]; Wnt3a substitute at 50 ng/ml): 70.9%
- Positive rate of rhodopsin ([1]; Wnt3a substitute at 50 ng/ml): 66.2%

B3: Wntll: recombinant Wnt11 (R&D Systems), Wnt signaling pathway activator used instead of Wnt3a (protein, UniProt O96014 25-354, looked up)
Protein Wnt-11: IKWLALSKTPSALALNQTQHCKQLEGLVSAQVQLCRSNLELMHTVVHAAREVMKACRRAFADMRWNCSSIELAPNYLLDLERGTRESAFVYALSAAAISHAIARACTSGDLPGCSCGPVPGEPPGPGNRWGGCADNLSYGLLMGAKFSDAPMKVKKTGSQANKLMRLHNSEVGRQALRASLEMKCKCHGVSGSCSIRTCWKGLQELQDVAADLKTRYLSATKVVHRPMGTRKHLVPKDLDIRPVKDSELVYLQSSPDFCMKNEKVGSHGTQDRQCNKTSNGSDSCDLMCCGRGYNPYTDRVVERCHCKYHWCCYVTCRRCERTVERYVCK
- Positive rate of Crx ([1]; Wnt3a substitute at 50 ng/ml): 65.9%
- Positive rate of Ki67 ([1]; Wnt3a substitute at 50 ng/ml): 40.1%
- Positive rate of Rom ([1]; Wnt3a substitute at 50 ng/ml): 50.2%
- Positive rate of b-opsin ([1]; Wnt3a substitute at 50 ng/ml): 30.6%
- Positive rate of peripherin2 ([1]; Wnt3a substitute at 50 ng/ml): 0.5%
- Positive rate of recoverin ([1]; Wnt3a substitute at 50 ng/ml): 65.3%
- Positive rate of rhodopsin ([1]; Wnt3a substitute at 50 ng/ml): 51.8%
- Positive rate of peripherin2 ([1]; Wnt3a substitute at 100 ng/ml): 10.7%
- Positive rate of recoverin ([1]; Wnt3a substitute at 100 ng/ml): 61.8%
- Positive rate of rhodopsin ([1]; Wnt3a substitute at 100 ng/ml): 59.1%

B4: Wnt5A: recombinant Wnt5A (R&D Systems), Wnt signaling pathway activator used instead of Wnt3a (protein, UniProt P41221 62-380, looked up)
Protein Wnt-5a: IIGAQPLCSQLAGLSQGQKKLCHLYQDHMQYIGEGAKTGIKECQYQFRHRRWNCSTVDNTSVFGRVMQIGSRETAFTYAVSAAGVVNAMSRACREGELSTCGCSRAARPKDLPRDWLWGGCGDNIDYGYRFAKEFVDARERERIHAKGSYESARILMNLHNNEAGRRTVYNLADVACKCHGVSGSCSLKTCWLQLADFRKVGDALKEKYDSAAAMRLNSRGKLVQVNSRFNSPTTQDLVYIDPSPDYCVRNESTGSLGTQGRLCNKTSEGMDGCELMCCGRGYDQFKTVQTERCHCKFHWCCYVKCKKCTEIVDQFVCK
- Positive rate of Crx ([1]; Wnt3a substitute at 50 ng/ml): 67.3%
- Positive rate of Ki67 ([1]; Wnt3a substitute at 50 ng/ml): 41.3%
- Positive rate of Rom ([1]; Wnt3a substitute at 50 ng/ml): 58.8%
- Positive rate of b-opsin ([1]; Wnt3a substitute at 50 ng/ml): 55.0%
- Positive rate of peripherin2 ([1]; Wnt3a substitute at 50 ng/ml): 20.7%
- Positive rate of recoverin ([1]; Wnt3a substitute at 50 ng/ml): 61.0%
- Positive rate of rhodopsin ([1]; Wnt3a substitute at 50 ng/ml): 59.5%
- Positive rate of peripherin2 ([1]; Wnt3a substitute at 100 ng/ml): 14.2%
- Positive rate of recoverin ([1]; Wnt3a substitute at 100 ng/ml): 61.6%
- Positive rate of rhodopsin ([1]; Wnt3a substitute at 100 ng/ml): 56.1%
